Laboratory results taken from ChEMBL document CHEMBL1201862, “PubChem BioAssay data set” (2004).
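In this assay, cells in 96-well plates receive the compound at five concentrations for 48 hours. Endpoints are linearly interpolated between the surrounding concentrations. At the GI50, growth is halved.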 Active and inactive are the calls of the source. Cut-off read from the data, not from the text of the source: active = GI50 up to about 1.1 µM and inactive = higher.

Assays:
Experiment in all cases: NCI anticancer screen, dose series, 48 h
DLD-1 = test system: DLD-1
SW-620 = test system: SW-620
SR = test system: SR
COLO 205 = test system: COLO 205
KM12 = test system: KM12
SNB-75 = test system: SNB-75
LOX IMVI = test system: LOX IMVI
RPMI-8226 = test system: RPMI-8226
DMS-114 = test system: DMS-114
SN12C = test system: SN12C
SNB-19 = test system: SNB-19
OVCAR-8 = test system: OVCAR-8
CAKI-1 = test system: CAKI-1
NCI-H23 = test system: NCI-H23
M19-MEL = test system: M19-MEL
HL-60 = test system: HL-60
HOP-92 = test system: HOP-92
HOP-18 = test system: HOP-18
PC-3 = test system: PC-3
Hs-578T = test system: Hs-578T

| SMILES | GI50 (DLD-1) | GI50 (SW-620) | GI50 (SR) | GI50 (COLO 205) | GI50 (KM12) | GI50 (SNB-75) | GI50 (LOX IMVI) | GI50 (RPMI-8226) | GI50 (DMS-114) | GI50 (SN12C) | GI50 (SNB-19) | GI50 (OVCAR-8) | GI50 (CAKI-1) | GI50 (NCI-H23) | GI50 (M19-MEL) | GI50 (HL-60) | GI50 (HOP-92) | GI50 (HOP-18) | GI50 (PC-3) | GI50 (Hs-578T) |
| --- | --- | --- | --- | --- | --- | --- | --- | --- | --- | --- | --- | --- | --- | --- | --- | --- | --- | --- | --- | --- |
| CCNC(=O)CCN(C(=O)O)S(=O)(=O)c1ccc(NC(=O)c2ccccc2)cc1 | > 100 µM (inactive) | 15.5 µM (inactive) | > 100 µM (inactive) | > 100 µM (inactive) | > 100 µM (inactive) | > 100 µM (inactive) | 22.6 µM (inactive) | > 100 µM (inactive) | > 100 µM (inactive) | > 100 µM (inactive) | > 100 µM (inactive) | > 100 µM (inactive) | > 100 µM (inactive) | > 100 µM (inactive) | 77.6 µM (inactive) | > 100 µM (inactive) | > 100 µM (inactive) | > 100 µM (inactive) |  |  |
| Cc1c(C(=O)C/C(=N/NC(=O)CC#N)C(N)=O)[n+]([O-])c2ccccc2[n+]1[O-] | 29.1 µM (inactive) | 17.7 µM (inactive) | 46.1 µM (inactive) | 34.6 µM (inactive) | 28 µM (inactive) | > 100 µM (inactive) | 34.3 µM (inactive) | 33.9 µM (inactive) | 23.8 µM (inactive) | 30.2 µM (inactive) | > 100 µM (inactive) | 34.2 µM (inactive) | > 100 µM (inactive) | 83.6 µM (inactive) | 21.8 µM (inactive) | 17.7 µM (inactive) | > 100 µM (inactive) | > 100 µM (inactive) |  |  |
| COc1ccc2c(c1)c1c(C)c3cnccc3c(C)c1n2CCCN | 0.0853 µM (active) | 0.0466 µM (active) | < 0.01 µM (active) | 0.177 µM (active) |  | 0.378 µM (active) | 0.0556 µM (active) |  | 0.273 µM (active) | 0.234 µM (active) | 0.29 µM (active) | 0.178 µM (active) |  | 0.216 µM (active) | 0.203 µM (active) |  | 0.0968 µM (active) | 0.42 µM (active) | 0.0715 µM (active) | 0.277 µM (active) |
